Reference: patent US20050089470A1, “Labeled peptides for lectin-like oxidized low-density lipoprotein receptor (LOX-1)” (priority 2003, published 2005)
Ends that are not written are not given here. Fl = fluorescein

Tested on: human coronary artery endothelial cells (HCAE)
Assay: Binding of fluorescein-labeled ligands to HCAE cells, imaged by laser confocal fluorescence microscopy
Assay type: cell-based
Conditions: HCAE cells known to express LOX-1; about 10 μL of 1 mg/ml labeled ligand, incubated 1 hour, washed three times
Method: Images in the assay may be acquired using a laser confocal microscope or an Imager. For example, images of peptides bound to cells can be obtained using a laser confocal microscope as follows: HCAE cells can be grown on high quality borosilicate 8-chambered glass slides (Electron Microscopy Sciences, Fort Washington, Pa.). Then, about 10 μL of 1 mg/ml of an aqueous solution of a labeled peptide can be added to the cells and incubated for 1 hour. Subsequently, the cells preferably are washed with HBSS buffer three times. The cells then can be fixed with 4% formaldehyde solution over 10 minutes. After a final wash with buffer, the slide is imaged. Images preferably are acquired using an OLYMPUS laser scanning confocal microscope, model Fluoview 300, using Ar-ion laser (selecting 488 nm line) and a 510-nm long-pass filter. Images can be acquired using two channels: reflected light and fluorescent mode channel, or an overlay of both channels.
The experimental conditions for imaging the peptide-labeled HCAECs are described previously.
The image was obtained using a laser confocal microscope as follows: HCAE cells were laid on and grown in wells on a standard commercial 96-well plate (Becton-Dickenson, Franklin Lakes, N.J.). Then, about 10 μL of 1 mg/ml labeled antibody aqueous solution was added to the cells and incubated for 1 hour. […]

Substance	binding / localization on HCAECs (fluorescent confocal image)
Fl-KGKG-QPLFTPQ (Fl-KGKGQPLFTPQ) [comparative peptide]	weaker binding affinity
Fl-KKGG-FQTPPQL (Fl-KKGGFQTPPQL)	localized on the cells
